Measured values published in US9388147B2 (Receptos, Inc., priority 2009, dated 2016).

These molecules were tested against S1P1/EDG1 (Homo sapiens, UniProt P21453) (assay: S1P1 CRE-bla CHOK1 reporter assay, inhibition of Forskolin induced cAMP). Conditions: agonist activity range, S1P1 CRE-bla CHOK1, 2 μM Forskolin; read-out: S1P1 ACTIVITY.
Type: cell-based
In short: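 Read-out is a FRET β-lactamase substrate (2 h, room temperature) after 4 h, 37 °C compound treatment under 2 μM Forskolin in stable S1P1-transfected CRE-bla CHO-K1 cells. Ten-point curves; non-linear regression gives EC50 for inhibition of Forskolin-stimulated cAMP.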

Sequence of S1P1/EDG1 (P21453 whole entry): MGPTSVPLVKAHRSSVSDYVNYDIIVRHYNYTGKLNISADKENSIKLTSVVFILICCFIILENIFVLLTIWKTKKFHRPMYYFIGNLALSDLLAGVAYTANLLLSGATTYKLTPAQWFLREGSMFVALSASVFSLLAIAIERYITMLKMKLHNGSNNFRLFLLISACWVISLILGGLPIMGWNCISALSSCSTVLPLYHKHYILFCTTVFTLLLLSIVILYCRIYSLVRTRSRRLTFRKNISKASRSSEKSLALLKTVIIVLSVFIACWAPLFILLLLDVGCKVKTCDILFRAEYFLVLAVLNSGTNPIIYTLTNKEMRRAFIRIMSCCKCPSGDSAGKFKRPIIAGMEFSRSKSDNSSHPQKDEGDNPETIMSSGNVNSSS

**Q.** Which EC50 does the source give for `CC(C)Oc1ccc(-c2nc(-c3cccc4c3CCC4NC(CO)CO)no2)cc1C#N` (racemic) [Compound 17, 5-(3-(1-((1,3-dihydroxypropan-2-yl)amino)-2,3-dihydro-1H-inden-4-yl)-1,2,4-oxadiazol-5-yl)-2-isopropoxybenzonitrile] here?
**A.** 0.05 to 0.5 nM

**Q.** Which EC50 does the source give for `CC(C)Oc1ccc(-c2nc(-c3cccc4c3CCC4NC[C@@H](O)CO)no2)cc1C#N` (mixture of isomers) [Compound 30] here?
**A.** 0.05 to 0.5 nM

**Q.** How did the EC50 turn out when `CNCCS(=O)(=O)N[C@H]1CCc2c(-c3noc(-c4ccc(OC(C)C)c(C#N)c4)n3)cccc21` [Compound 74] was run?
**A.** 0.05 to 0.5 nM

**Q.** Which EC50 does the source give for `CCN(CCO)[C@@H]1CCc2c(-c3noc(-c4ccc(OC(C)C)c(C#N)c4)n3)cccc21` [Compound 114] here?
**A.** 0.05 to 0.5 nM

**Q.** With `CC(C)Oc1ccc(-c2nc(-c3cccc4c3CC[C@H]4NCC(F)F)no2)cc1C#N` [Compound 140] as the molecule, how does the EC50 read?
**A.** 0.5 to 5 nM

**Q.** `COC(=O)C(C)(C)CS(=O)(=O)N[C@H]1CCc2c(-c3noc(-c4ccc(OC(C)C)c(C#N)c4)n3)cccc21` [Compound 183] was tested. Which EC50 did it give?
**A.** 0.5 to 5 nM

**Q.** For `N#Cc1cc(-c2nc(-c3cccc4c3CCC4NCCO)no2)ccc1O` (racemic) [Compound 102, 2-hydroxy-5-(3-(1-((2-hydroxyethyl)amino)-2,3-dihydro-1H-inden-4-yl)-1,2,4-oxadiazol-5-yl)benzonitrile], which EC50 is on record?
**A.** > 5 nM

**Q.** `CC(C)Oc1ccc(-c2nc(-c3cccc4c3CC[C@H]4NS(=O)(=O)CC(=O)O)no2)cc1C#N` [Compound 184, (R)-2 (N (4-(5-(3 cyano-4-isopropoxyphenyl)-1,2,4-oxadiazol-3-yl)-2,3-dihydro-1H-inden-1-yl)sulfamoyl)acetic acid] was tested. Which EC50 did it give?
**A.** < 0.05 nM

**Q.** `CC(C)Oc1ccc(-c2nc(-c3cccc4c3CC[C@H]4NC(=O)N3CC[C@@H](N(C)C)C3)no2)cc1C#N` [Compound 242] was tested. Which EC50 did it give?
**A.** 0.5 to 5 nM

**Q.** `CC(C)Oc1ccc(-c2nc(-c3cccc4c3CC[C@H]4NC(=O)CN3CCCC3)no2)cc1C#N` [Compound 68] was tested. Which EC50 did it give?
**A.** 0.5 to 5 nM

**Q.** With `CC(C)Oc1ccc(-c2nc(-c3cccc4c3CC[C@@H]4NCCS(C)(=O)=O)no2)cc1C#N` [Compound 126] as the molecule, how does the EC50 read?
**A.** 0.05 to 0.5 nM

**Q.** For `CC(C)Oc1ccc(-c2nc(-c3cccc4c3CC[C@H]4NCc3ccccc3)no2)cc1C#N` [Compound 156], which EC50 is on record?
**A.** 0.5 to 5 nM

**Q.** For `CC(C)Oc1ccc(-c2nc(-c3cccc4c3CCC4NC[C@H](C)O)no2)cc1C#N` (mixture of isomers) [Compound 43], which EC50 is on record?
**A.** 0.05 to 0.5 nM

**Q.** For `CC(C)Oc1ccc(-c2nc(-c3cccc4c3CC[C@H]4N(CCO)S(C)(=O)=O)no2)cc1C#N` [Compound 112, (R)-N-(4-(5-(3 cyano-4-isopropoxyphenyl)-1,2,4-oxadiazol-3-yl)-2,3-dihydro-1H-inden-1-yl)-N-(2-hydroxyethyl)methanesulfonamide], which EC50 is on record?
**A.** 0.5 to 5 nM

**Q.** With `CC(C)Oc1ccc(-c2nc(-c3cccc4c3CC[C@H]4NC(=O)N3CCOCC3)no2)cc1C#N` [Compound 211] as the molecule, how does the EC50 read?
**A.** 0.05 to 0.5 nM

**Q.** For `COC(=O)CCS(=O)(=O)N[C@H]1CCc2c(-c3noc(-c4ccc(OC(C)C)c(C#N)c4)n3)cccc21` [Compound 182], which EC50 is on record?
**A.** 0.05 to 0.5 nM

**Q.** `CC(C)Oc1ccc(-c2nc(-c3cccc4c3CCC4NC[C@H](O)CO)no2)cc1C#N` (mixture of isomers) [Compound 41] was tested. Which EC50 did it give?
**A.** 0.05 to 0.5 nM

**Q.** Which EC50 does the source give for `CC(C)Oc1ccc(-c2nc(-c3cccc4c3CC[C@H]4NC(=O)N3CC[C@H](O)C3)no2)cc1C#N` [Compound 231] here?
**A.** 0.05 to 0.5 nM

**Q.** How did the EC50 turn out when `CC(C)Oc1ccc(-c2nc(-c3cccc4c3CCC4N3CC[C@H](O)C3)no2)cc1C#N` (mixture of isomers) [Compound 34] was run?
**A.** 0.5 to 5 nM

**Q.** For `CC(C)Oc1ccc(-c2nc(-c3cccc4c3CC[C@H]4NCC(=O)N3CC3)no2)cc1C#N` [Compound 127], which EC50 is on record?
**A.** 0.5 to 5 nM

**Q.** With `CC(C)Oc1ccc(-c2nc(-c3cccc4c3CC[C@H]4N[C@H](C)CO)no2)cc1C#N` [Compound 56, 5-(3-((R)-1-(((R)-1-hydroxypropan-2-yl)amino)-2,3-dihydro-1H-inden-4-yl)-1,2,4-oxadiazol-5-yl)-2-isopropoxybenzonitrile] as the molecule, how does the EC50 read?
**A.** 0.05 to 0.5 nM

**Q.** For `CN[C@H]1CCc2c(-c3noc(-c4ccc(OC(C)C)c(C#N)c4)n3)cccc21` [Compound 105], which EC50 is on record?
**A.** 0.05 to 0.5 nM

**Q.** For `COCC(=O)NC1CCc2c(-c3noc(-c4ccc(OC(C)C)c(C#N)c4)n3)cccc21` (racemic) [Compound 39], which EC50 is on record?
**A.** 0.05 to 0.5 nM

**Q.** For `CC(C)Oc1cc(-c2nc(-c3cccc4c3CC[C@H]4N)no2)ccc1C#N` [Compound 98, (R)-4-(3-(1-amino-2,3-dihydro-1H-inden-4-yl)-1,2,4-oxadiazol-5-yl)-2-isopropoxy benzonitrile], which EC50 is on record?
**A.** > 5 nM

**Q.** Which EC50 does the source give for `CC(C)Oc1ccc(-c2nc(-c3cccc4c3CC[C@H]4NCCC(=O)O)no2)cc1C#N` [Compound 62, (R)-3-((4-(5-(3-cyano-4-isopropoxyphenyl)-1,2,4-oxadiazol-3-yl)-2,3-dihydro-1H-inden-1-yl)amino)propanoic acid] here?
**A.** < 0.05 nM

**Q.** How did the EC50 turn out when `COC(=O)CCCCNC1CCc2c(-c3noc(-c4ccc(OC(C)C)c(C#N)c4)n3)cccc21` (racemic) [Compound 147] was run?
**A.** < 0.05 nM

**Q.** Which EC50 does the source give for `CCOCCS(=O)(=O)N[C@@H]1CCc2c(-c3noc(-c4ccc(OC(C)C)c(C#N)c4)n3)cccc21` [Compound 165] here?
**A.** 0.05 to 0.5 nM

**Q.** `CC(C)Oc1ccc(-c2nc(-c3cccc4c3CCC4NC[C@@H](C)O)no2)cc1C#N` (mixture of isomers) [Compound 42] was tested. Which EC50 did it give?
**A.** 0.5 to 5 nM

**Q.** How did the EC50 turn out when `CC(C)Oc1ccc(-c2nc(-c3cccc4c3CC[C@@H]4NS(=O)(=O)CCN3CC[C@H](O)C3)no2)cc1C#N` [Compound 174] was run?
**A.** 0.5 to 5 nM

**Q.** For `CCN(CC(=O)N(C)C)[C@@H]1CCc2c(-c3noc(-c4ccc(OC(C)C)c(C#N)c4)n3)cccc21` [Compound 116], which EC50 is on record?
**A.** 0.5 to 5 nM

**Q.** How did the EC50 turn out when `CC(C)Oc1ccc(-c2nc(-c3cccc4c3CC[C@H]4NCC(=O)N3CCC3)no2)cc1C#N` [Compound 128] was run?
**A.** 0.05 to 0.5 nM

**Q.** `CC(C)Oc1ccc(-c2nc(-c3cccc4c3CC[C@@H]4NC(=O)N3CCOCC3)no2)cc1C#N` [Compound 212] was tested. Which EC50 did it give?
**A.** 0.05 to 0.5 nM

**Q.** For `CC(C)Oc1ccc(-c2nc(-c3cccc4c3CC[C@H]4N3CC(C(=O)N(C)C)C3)no2)cc1C#N` [Compound 204], which EC50 is on record?
**A.** 0.05 to 0.5 nM

**Q.** How did the EC50 turn out when `CC(C)Oc1ccc(-c2nc(-c3cccc4c3CC[C@@H]4NS(C)(=O)=O)no2)cc1C#N` [Compound 69, (S)-N-(4-(5-(3 cyano-4-isopropoxyphenyl)-1,2,4-oxadiazol-3-yl)-2,3-dihydro-1H-inden-1-yl)methanesulfonamide] was run?
**A.** < 0.05 nM

**Q.** How did the EC50 turn out when `CC(C)Oc1ccc(-c2nc(-c3cccc4c3CC[C@@H]4NC(=O)CO)no2)cc1C#N` [Compound 137] was run?
**A.** < 0.05 nM

**Q.** How did the EC50 turn out when `CCOc1ccc(-c2nc(-c3cccc4c3CC[C@H]4N)no2)cc1C#N` [Compound 94] was run?
**A.** 0.5 to 5 nM

**Q.** How did the EC50 turn out when `CC(C)Oc1ccc(-c2nc(-c3cccc4c3CC[C@H]4NCC(=O)N3CCCC3)no2)cc1C#N` [Compound 129] was run?
**A.** 0.05 to 0.5 nM

**Q.** For `CC(C)Oc1ccc(-c2nc(-c3cccc4c3CC[C@H]4NCCS(C)(=O)=O)no2)cc1C#N` [Compound 125, (R)-2-isopropoxy-5-(3-(1-((2-(methylsulfonyl)ethyl)amino)-2,3-dihydro-1H-inden-4-yl)-1,2,4-oxadiazol-5-yl)benzonitrile], which EC50 is on record?
**A.** 0.05 to 0.5 nM

**Q.** Which EC50 does the source give for `CC(C)Oc1ccc(-c2nc(-c3cccc4c3CC[C@H]4NS(=O)(=O)CC(N)=O)no2)cc1C#N` [Compound 197] here?
**A.** < 0.05 nM

**Q.** `CC(C)Oc1ccc(-c2nc(-c3cccc4c3CC[C@@H]4N(C)CC(=O)O)no2)cc1C#N` [Compound 208] was tested. Which EC50 did it give?
**A.** 0.05 to 0.5 nM

**Q.** Which EC50 does the source give for `CC(C)Oc1ccc(-c2nc(-c3cccc4c3CC[C@H]4N[C@H](C)C(=O)O)no2)cc1C#N` [Compound 63] here?
**A.** < 0.05 nM

**Q.** `CCOC(=O)CNC1CCc2c(-c3noc(-c4ccc(OC(C)C)c(C#N)c4)n3)cccc21` (racemic) [Compound 40] was tested. Which EC50 did it give?
**A.** 0.05 to 0.5 nM

**Q.** For `N#Cc1cc(-c2nc(-c3cccc4c3CCC4NCCO)no2)ccc1OCC(=O)O` (racemic) [Compound 109], which EC50 is on record?
**A.** > 5 nM

**Q.** For `N#Cc1cc(-c2nc(-c3cccc4c3CC[C@H]4N)no2)ccc1OCC1CC1` [Compound 100, (R)-5-(3-(1-amino-2,3-dihydro-1H-inden-4-yl)-1,2,4-oxadiazol-5-yl)-2-(cyclopropylmethoxy)benzonitrile], which EC50 is on record?
**A.** 0.5 to 5 nM

**Q.** With `CC(C)Oc1ccc(-c2nc(-c3cccc4c3CCC4N3CC[C@H](N)C3)no2)cc1C#N` (mixture of isomers) [Compound 32] as the molecule, how does the EC50 read?
**A.** 0.5 to 5 nM

**Q.** `CC(C)Oc1ccc(-c2nc(-c3cccc4c3CC[C@H]4NC(=O)N3CCC(O)CC3)no2)cc1C#N` [Compound 240] was tested. Which EC50 did it give?
**A.** 0.5 to 5 nM

**Q.** `CCS(=O)(=O)N[C@H]1CCc2c(-c3noc(-c4ccc(OC(C)C)c(C#N)c4)n3)cccc21` [Compound 73] was tested. Which EC50 did it give?
**A.** 0.5 to 5 nM

**Q.** How did the EC50 turn out when `CC(C)Oc1ccc(-c2nc(-c3cccc4c3CC[C@H]4N3CC(O)C3)no2)cc1C#N` [Compound 83, (R)-5-(3-(1-(3-hydroxyazetidin-1-yl)-2,3-dihydro-1H-inden-4-yl)-1,2,4-oxadiazol-5-yl)-2-isopropoxybenzonitrile] was run?
**A.** 0.05 to 0.5 nM

**Q.** Which EC50 does the source give for `CC(C)Oc1ccc(-c2nc(-c3cccc4c3CC[C@H]4N(C)CC(=O)N(C)C)no2)cc1C#N` [Compound 115] here?
**A.** 0.5 to 5 nM

**Q.** With `CC(C)CS(=O)(=O)N[C@@H]1CCc2c(-c3noc(-c4ccc(OC(C)C)c(C#N)c4)n3)cccc21` [Compound 76] as the molecule, how does the EC50 read?
**A.** 0.5 to 5 nM

**Q.** For `CC(C)Oc1ccc(-c2nc(-c3cccc4c3CC[C@H]4NC(=O)N3CCC(C(=O)O)CC3)no2)cc1C#N` [Compound 238], which EC50 is on record?
**A.** 0.05 to 0.5 nM

**Q.** For `CC(C)Oc1ccc(-c2nc(-c3cccc4c3CCC4NC3CCCCC3)no2)cc1C#N` (racemic) [Compound 22], which EC50 is on record?
**A.** > 5 nM

**Q.** With `CNCCS(=O)(=O)NC1CCc2c(-c3noc(-c4ccc(OC(C)C)c(C#N)c4)n3)cccc21` (stereo in doubt) [Compound 75] as the molecule, how does the EC50 read?
**A.** 0.5 to 5 nM

**Q.** How did the EC50 turn out when `CC(C)Oc1ccc(-c2nc(-c3cccc4c3CC[C@@H]4NCC(=O)N(C)C)no2)cc1C(N)=O` [Compound 121] was run?
**A.** > 5 nM

**Q.** Which EC50 does the source give for `COC(=O)N[C@@H]1CCc2c(-c3noc(-c4ccc(OC(C)C)c(C#N)c4)n3)cccc21` [Compound 149, (R)-methyl (4-(5-(3-cyano-4-isopropoxyphenyl)-1,2,4-oxadiazol-3-yl)-2,3-dihydro-1H-inden-1-yl)carbamate] here?
**A.** 0.05 to 0.5 nM

**Q.** How did the EC50 turn out when `CC(C)N[C@H]1CCc2c(-c3noc(-c4ccc(OC(C)C)c(C#N)c4)n3)cccc21` [Compound 87] was run?
**A.** 0.5 to 5 nM
